Test results taken from US8207182B2, “Substituted cyclic urea derivatives and the use thereof as vanilloid receptor 1 modulators” (Gruenenthal GmbH, priority 2005, dated 2012).

Biological target: T1, vanilloid receptor 1 (VR1/TRPV1) (Rattus norvegicus, UniProt O35433)
T1 construct: from tissue; host or cells: primary cells dissociated from rat dorsal root ganglia (DRGs), cultured for two to three days
Test: Functional investigation on the vanilloid receptor 1 (FLIPR Ca2+ influx assay, capsaicin)
Assay type: cell-based
Details: rat dorsal root ganglia cells, Fluo-4 FLIPR, 100 nM capsaicin
Excerpt: I. Functional Investigation on the Vanilloid Receptor 1 (VRI/TRPV1 Receptor)
The agonistic or antagonistic action of the substances to be investigated on the vanilloid receptor 1 (VR1/TRPV1) of the species rat can be determined using the following assay. According to this assay, the Ca^2+ influx through the receptor channel is quantified with the aid of a Ca^2+-sensitive dye (Type Fluo-4, Molecular Probes Europe BV, Leiden Netherlands) in a fluorescent imaging plate reader (FLIPR, Molecular Devices, Sunnyvale, USA).
Complete medium: 50 mL of HAMS F12 Nutrient Mixture (Gibco Invitrogen GmbH, Karlsruhe, Germany) with
10% by volume of FCS (fetal calf serum, Gibco Invitrogen GmbH, Karlsruhe, Germany, heat-inactivated);
2 mM L-glutamine (Sigma, Munich, Germany);
1% by weight of AA solution (antibiotic/antimycotic solution, PAA, Pasching, Austria) and 25 ng/mL of Medium NGF (2.5 S, Gibco Invitrogen GmbH, Karlsruhe, Germany) […]
The DRGs are in each case repeatedly suspended, drawn through No. 1, No. 12 and No. 16 needles by means of a syringe and transferred to 50 mL Falcon tubes and these are filled to 15 mL with complete medium. […] The resulting pellet is in each case taken up in 250 μL of complete medium and the cell count is determined. […]

T1 sequence (O35433 whole entry): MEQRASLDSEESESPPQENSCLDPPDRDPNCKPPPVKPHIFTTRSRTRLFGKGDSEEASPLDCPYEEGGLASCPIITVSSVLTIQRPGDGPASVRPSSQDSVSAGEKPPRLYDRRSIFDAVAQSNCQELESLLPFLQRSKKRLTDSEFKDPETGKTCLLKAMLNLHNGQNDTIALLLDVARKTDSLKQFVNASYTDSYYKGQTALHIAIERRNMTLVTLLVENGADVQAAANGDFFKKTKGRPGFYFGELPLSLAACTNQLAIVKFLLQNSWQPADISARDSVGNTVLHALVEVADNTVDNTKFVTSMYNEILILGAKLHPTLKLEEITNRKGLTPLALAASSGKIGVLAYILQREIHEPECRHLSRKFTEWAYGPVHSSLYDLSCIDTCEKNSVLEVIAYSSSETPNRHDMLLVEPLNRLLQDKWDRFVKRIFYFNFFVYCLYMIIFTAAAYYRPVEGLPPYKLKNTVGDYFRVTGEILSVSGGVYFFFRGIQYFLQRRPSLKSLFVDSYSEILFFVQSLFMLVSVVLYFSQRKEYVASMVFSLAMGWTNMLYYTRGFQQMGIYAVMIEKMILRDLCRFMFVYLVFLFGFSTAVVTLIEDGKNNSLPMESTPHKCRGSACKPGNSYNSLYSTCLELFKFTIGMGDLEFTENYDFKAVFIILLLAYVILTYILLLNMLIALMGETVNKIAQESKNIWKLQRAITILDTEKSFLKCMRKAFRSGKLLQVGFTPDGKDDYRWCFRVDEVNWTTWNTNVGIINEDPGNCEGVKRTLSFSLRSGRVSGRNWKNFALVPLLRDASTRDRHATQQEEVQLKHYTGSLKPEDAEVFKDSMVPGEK

Structure (SMILES)	IC50
CC(C)(C)c1ccc(CN2CCN(Cc3ccc(NS(C)(=O)=O)cc3)C2=O)cc1 [Example 4, N-{4-[3-(4-tert-butylbenzyl)-2-oxoimidazolidin-1-ylmethyl]-phenyl}methanesulfonamide]	9.4 µM
CC(C)(C)c1ccc(CN2CCCN(Cc3ccc(NS(C)(=O)=O)cc3)C2=O)cc1 [Example 5, N-{4-[3-(4-tert-butylbenzyl)-2-oxotetrahydropyrimidin-1-ylmethyl]-phenyl}methanesulfonamide]	2.9 µM
